From ChEMBL document CHEMBL4043168, “The design and SAR of a novel series of 2-aminopyridine based LRRK2 inhibitors” (Bioorg Med Chem Lett, 2017) come the findings set out here.

Data set [1] is described as follows: Aqueous solubility of the compound in pH 7.4. It is filed as physicochemical. The following applies: aqueous medium.
Data set [2] deals with Calcium/calmodulin-dependent protein kinase type II subunit gamma (Homo sapiens) (UniProt Q13555). Kind of data set: Inhibition of CaMK2g labeling at conserved Lys2 (DLKPENLLLASK) in human PBMC at 1 uM.
For data set [3], the target named is T1, Serine/threonine-protein kinase LATS1 (Homo sapiens) (UniProt O95835).
T1 sequence (whole entry): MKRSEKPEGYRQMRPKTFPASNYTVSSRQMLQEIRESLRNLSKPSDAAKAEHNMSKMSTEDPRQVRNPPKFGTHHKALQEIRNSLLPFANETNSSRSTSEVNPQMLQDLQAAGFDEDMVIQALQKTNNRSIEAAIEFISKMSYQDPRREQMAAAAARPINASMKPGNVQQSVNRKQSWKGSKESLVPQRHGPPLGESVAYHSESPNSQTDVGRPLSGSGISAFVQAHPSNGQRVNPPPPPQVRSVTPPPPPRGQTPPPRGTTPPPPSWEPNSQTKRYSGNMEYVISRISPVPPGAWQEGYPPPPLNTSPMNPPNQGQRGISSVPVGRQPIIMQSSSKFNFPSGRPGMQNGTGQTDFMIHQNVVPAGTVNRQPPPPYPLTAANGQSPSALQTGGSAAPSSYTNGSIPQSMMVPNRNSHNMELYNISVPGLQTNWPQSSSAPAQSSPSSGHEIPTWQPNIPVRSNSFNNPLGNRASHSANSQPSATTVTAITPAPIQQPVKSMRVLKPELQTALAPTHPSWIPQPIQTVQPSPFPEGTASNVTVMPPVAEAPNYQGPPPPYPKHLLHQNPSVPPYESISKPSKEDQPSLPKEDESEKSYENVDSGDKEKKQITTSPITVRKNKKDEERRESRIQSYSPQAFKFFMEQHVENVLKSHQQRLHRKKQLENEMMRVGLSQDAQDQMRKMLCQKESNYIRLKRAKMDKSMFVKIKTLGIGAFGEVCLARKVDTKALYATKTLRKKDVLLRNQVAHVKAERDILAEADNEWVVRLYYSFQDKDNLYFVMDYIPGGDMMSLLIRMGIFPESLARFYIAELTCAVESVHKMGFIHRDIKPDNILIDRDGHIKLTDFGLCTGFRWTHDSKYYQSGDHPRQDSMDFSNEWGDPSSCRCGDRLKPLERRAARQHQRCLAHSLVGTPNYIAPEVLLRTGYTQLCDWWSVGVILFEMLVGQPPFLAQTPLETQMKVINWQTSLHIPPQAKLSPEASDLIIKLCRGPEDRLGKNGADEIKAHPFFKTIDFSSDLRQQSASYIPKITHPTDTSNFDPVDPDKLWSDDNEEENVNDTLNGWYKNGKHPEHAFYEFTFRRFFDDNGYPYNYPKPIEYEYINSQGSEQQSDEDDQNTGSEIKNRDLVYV
In words: Inhibition of LATS1 conserved Lys1 (ALYATKTLR) in human PBMC at 1 uM.

Data set [4] deals with T2, Serine/threonine-protein kinase 3 (Homo sapiens) (UniProt Q13188).
T2 sequence (whole entry): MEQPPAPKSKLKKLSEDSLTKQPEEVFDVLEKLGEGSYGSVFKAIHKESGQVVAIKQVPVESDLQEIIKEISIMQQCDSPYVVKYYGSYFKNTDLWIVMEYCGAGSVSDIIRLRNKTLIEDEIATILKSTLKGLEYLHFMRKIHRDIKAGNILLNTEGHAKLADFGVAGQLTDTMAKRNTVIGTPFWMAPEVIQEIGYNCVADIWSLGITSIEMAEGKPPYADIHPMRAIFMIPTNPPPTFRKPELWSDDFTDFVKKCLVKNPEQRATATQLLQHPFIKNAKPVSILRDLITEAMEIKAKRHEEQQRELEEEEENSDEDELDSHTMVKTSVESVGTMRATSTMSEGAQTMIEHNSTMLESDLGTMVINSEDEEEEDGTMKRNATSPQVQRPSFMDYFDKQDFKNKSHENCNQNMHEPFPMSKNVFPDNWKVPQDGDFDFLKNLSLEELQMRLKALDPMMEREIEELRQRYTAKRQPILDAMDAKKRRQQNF
Kind of data set: Inhibition of MST2 conserved Lys2 (DIKAGNILLNTEGHAK) in human PBMC at 1 uM.

Data set [5] has as its target Phosphatidylinositol 4-kinase beta (Homo sapiens) (UniProt Q9UBF8). Kind of data set: Inhibition of PI4KB ATP binding site (VPHTQAVVLNSKDK) in human PBMC at 1 uM.
For data set [6], the target named is Phosphatidylinositol 3-kinase catalytic subunit type 3 (Homo sapiens) (UniProt Q8NEB9). In words: Inhibition of PIK3C3 ATP binding site (TEDGGKYPVIFKHGDDLR) in human PBMC at 1 uM.
Data set [7] has as its target Serine/threonine-protein kinase SMG1 (Homo sapiens) (UniProt Q96Q15). Kind of data set: Inhibition of SMG1 ATP binding site (DTVTIHSVGGTITILPTKTKPK) in human PBMC at 1 uM.
Data set [8] deals with Serine/threonine-protein kinase WNK2 (Homo sapiens) (UniProt Q9Y3S1). Kind of data set: Inhibition of Wnk2 ATP binding site (GSFKTVYK) in human PBMC at 1 uM.
In data set [9] the target is T3, Inhibitor of nuclear factor kappa-B kinase subunit epsilon (Homo sapiens) (UniProt Q14164).
T3 sequence (whole entry): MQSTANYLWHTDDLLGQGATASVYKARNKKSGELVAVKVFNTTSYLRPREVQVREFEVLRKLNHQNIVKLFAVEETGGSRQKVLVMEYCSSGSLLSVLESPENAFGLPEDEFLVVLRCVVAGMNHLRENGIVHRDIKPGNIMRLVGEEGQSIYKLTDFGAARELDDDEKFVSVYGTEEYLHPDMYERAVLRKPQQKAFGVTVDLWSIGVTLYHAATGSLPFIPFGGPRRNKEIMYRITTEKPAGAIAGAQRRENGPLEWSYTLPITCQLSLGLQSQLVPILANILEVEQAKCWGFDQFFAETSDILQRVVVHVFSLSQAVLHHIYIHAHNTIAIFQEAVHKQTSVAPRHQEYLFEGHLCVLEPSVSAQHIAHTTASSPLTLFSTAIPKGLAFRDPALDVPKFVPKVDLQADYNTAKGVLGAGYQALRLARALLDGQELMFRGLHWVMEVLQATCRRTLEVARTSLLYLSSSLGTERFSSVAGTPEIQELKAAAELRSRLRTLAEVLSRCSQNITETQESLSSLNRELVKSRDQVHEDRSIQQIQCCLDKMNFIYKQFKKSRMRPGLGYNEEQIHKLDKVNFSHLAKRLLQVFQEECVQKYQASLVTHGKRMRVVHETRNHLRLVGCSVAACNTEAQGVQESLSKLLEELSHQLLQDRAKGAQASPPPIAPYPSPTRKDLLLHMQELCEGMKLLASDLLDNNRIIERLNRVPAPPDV
Kind of data set: Inhibition of IKKe conserved Lys2 (DIKPGNIMR) in human PBMC at 0.1 uM.

Data set [10] addresses Mitogen-activated protein kinase kinase kinase 7 (Homo sapiens) (UniProt O43318). In words: Inhibition of TAK1 conserved Lys2 (DLKPPNLLLVAGGTVLK) in human PBMC at 0.1 uM.

Broadly, the solubility is the concentration that dissolves in the medium under given conditions. High values mean much dissolved substance, low ones little dissolved substance. What is called inhibition is the change of the read-out against control, counted positive when it falls.

Converted amounts (≈) assume the structure as drawn.

Mitogen-activated protein kinase kinase kinase 7 (Homo sapiens), sequence (O43318 whole entry): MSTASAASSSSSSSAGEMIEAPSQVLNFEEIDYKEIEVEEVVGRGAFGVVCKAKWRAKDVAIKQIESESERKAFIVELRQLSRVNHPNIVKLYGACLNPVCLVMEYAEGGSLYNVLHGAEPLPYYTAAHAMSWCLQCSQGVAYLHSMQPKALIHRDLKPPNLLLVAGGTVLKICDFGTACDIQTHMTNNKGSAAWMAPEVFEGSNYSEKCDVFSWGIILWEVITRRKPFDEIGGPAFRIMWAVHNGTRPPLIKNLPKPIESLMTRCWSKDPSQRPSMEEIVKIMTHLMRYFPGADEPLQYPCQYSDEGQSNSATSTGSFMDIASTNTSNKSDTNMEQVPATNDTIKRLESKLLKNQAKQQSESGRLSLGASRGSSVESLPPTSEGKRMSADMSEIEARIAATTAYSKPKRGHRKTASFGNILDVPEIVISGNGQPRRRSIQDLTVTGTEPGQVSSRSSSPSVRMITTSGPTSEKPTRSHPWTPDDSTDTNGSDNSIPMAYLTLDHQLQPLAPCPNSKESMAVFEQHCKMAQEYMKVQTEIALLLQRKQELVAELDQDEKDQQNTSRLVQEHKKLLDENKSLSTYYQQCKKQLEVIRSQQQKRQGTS
Phosphatidylinositol 4-kinase beta (Homo sapiens), sequence (Q9UBF8 2-816 limits assumed): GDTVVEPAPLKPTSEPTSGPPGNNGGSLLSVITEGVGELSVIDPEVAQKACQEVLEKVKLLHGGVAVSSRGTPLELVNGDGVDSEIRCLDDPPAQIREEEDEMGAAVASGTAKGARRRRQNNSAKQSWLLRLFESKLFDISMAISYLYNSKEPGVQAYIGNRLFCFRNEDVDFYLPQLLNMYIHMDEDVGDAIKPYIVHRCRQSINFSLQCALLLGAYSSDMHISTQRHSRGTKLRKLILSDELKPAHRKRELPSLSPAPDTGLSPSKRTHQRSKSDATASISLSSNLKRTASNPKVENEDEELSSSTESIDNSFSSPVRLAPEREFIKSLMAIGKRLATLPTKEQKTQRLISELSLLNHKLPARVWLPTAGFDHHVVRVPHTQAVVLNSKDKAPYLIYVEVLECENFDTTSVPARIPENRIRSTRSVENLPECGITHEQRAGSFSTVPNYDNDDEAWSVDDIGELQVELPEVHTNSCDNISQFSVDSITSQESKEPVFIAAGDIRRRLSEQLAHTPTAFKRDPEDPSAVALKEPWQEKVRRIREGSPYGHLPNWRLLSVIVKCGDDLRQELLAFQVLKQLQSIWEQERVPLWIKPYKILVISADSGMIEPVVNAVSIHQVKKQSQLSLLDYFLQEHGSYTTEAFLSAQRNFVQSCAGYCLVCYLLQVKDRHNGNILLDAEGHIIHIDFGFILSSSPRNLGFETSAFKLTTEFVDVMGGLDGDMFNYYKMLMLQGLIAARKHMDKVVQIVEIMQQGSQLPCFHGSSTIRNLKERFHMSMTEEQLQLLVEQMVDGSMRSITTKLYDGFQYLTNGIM
Serine/threonine-protein kinase SMG1 (Homo sapiens), sequence (Q96Q15 whole entry): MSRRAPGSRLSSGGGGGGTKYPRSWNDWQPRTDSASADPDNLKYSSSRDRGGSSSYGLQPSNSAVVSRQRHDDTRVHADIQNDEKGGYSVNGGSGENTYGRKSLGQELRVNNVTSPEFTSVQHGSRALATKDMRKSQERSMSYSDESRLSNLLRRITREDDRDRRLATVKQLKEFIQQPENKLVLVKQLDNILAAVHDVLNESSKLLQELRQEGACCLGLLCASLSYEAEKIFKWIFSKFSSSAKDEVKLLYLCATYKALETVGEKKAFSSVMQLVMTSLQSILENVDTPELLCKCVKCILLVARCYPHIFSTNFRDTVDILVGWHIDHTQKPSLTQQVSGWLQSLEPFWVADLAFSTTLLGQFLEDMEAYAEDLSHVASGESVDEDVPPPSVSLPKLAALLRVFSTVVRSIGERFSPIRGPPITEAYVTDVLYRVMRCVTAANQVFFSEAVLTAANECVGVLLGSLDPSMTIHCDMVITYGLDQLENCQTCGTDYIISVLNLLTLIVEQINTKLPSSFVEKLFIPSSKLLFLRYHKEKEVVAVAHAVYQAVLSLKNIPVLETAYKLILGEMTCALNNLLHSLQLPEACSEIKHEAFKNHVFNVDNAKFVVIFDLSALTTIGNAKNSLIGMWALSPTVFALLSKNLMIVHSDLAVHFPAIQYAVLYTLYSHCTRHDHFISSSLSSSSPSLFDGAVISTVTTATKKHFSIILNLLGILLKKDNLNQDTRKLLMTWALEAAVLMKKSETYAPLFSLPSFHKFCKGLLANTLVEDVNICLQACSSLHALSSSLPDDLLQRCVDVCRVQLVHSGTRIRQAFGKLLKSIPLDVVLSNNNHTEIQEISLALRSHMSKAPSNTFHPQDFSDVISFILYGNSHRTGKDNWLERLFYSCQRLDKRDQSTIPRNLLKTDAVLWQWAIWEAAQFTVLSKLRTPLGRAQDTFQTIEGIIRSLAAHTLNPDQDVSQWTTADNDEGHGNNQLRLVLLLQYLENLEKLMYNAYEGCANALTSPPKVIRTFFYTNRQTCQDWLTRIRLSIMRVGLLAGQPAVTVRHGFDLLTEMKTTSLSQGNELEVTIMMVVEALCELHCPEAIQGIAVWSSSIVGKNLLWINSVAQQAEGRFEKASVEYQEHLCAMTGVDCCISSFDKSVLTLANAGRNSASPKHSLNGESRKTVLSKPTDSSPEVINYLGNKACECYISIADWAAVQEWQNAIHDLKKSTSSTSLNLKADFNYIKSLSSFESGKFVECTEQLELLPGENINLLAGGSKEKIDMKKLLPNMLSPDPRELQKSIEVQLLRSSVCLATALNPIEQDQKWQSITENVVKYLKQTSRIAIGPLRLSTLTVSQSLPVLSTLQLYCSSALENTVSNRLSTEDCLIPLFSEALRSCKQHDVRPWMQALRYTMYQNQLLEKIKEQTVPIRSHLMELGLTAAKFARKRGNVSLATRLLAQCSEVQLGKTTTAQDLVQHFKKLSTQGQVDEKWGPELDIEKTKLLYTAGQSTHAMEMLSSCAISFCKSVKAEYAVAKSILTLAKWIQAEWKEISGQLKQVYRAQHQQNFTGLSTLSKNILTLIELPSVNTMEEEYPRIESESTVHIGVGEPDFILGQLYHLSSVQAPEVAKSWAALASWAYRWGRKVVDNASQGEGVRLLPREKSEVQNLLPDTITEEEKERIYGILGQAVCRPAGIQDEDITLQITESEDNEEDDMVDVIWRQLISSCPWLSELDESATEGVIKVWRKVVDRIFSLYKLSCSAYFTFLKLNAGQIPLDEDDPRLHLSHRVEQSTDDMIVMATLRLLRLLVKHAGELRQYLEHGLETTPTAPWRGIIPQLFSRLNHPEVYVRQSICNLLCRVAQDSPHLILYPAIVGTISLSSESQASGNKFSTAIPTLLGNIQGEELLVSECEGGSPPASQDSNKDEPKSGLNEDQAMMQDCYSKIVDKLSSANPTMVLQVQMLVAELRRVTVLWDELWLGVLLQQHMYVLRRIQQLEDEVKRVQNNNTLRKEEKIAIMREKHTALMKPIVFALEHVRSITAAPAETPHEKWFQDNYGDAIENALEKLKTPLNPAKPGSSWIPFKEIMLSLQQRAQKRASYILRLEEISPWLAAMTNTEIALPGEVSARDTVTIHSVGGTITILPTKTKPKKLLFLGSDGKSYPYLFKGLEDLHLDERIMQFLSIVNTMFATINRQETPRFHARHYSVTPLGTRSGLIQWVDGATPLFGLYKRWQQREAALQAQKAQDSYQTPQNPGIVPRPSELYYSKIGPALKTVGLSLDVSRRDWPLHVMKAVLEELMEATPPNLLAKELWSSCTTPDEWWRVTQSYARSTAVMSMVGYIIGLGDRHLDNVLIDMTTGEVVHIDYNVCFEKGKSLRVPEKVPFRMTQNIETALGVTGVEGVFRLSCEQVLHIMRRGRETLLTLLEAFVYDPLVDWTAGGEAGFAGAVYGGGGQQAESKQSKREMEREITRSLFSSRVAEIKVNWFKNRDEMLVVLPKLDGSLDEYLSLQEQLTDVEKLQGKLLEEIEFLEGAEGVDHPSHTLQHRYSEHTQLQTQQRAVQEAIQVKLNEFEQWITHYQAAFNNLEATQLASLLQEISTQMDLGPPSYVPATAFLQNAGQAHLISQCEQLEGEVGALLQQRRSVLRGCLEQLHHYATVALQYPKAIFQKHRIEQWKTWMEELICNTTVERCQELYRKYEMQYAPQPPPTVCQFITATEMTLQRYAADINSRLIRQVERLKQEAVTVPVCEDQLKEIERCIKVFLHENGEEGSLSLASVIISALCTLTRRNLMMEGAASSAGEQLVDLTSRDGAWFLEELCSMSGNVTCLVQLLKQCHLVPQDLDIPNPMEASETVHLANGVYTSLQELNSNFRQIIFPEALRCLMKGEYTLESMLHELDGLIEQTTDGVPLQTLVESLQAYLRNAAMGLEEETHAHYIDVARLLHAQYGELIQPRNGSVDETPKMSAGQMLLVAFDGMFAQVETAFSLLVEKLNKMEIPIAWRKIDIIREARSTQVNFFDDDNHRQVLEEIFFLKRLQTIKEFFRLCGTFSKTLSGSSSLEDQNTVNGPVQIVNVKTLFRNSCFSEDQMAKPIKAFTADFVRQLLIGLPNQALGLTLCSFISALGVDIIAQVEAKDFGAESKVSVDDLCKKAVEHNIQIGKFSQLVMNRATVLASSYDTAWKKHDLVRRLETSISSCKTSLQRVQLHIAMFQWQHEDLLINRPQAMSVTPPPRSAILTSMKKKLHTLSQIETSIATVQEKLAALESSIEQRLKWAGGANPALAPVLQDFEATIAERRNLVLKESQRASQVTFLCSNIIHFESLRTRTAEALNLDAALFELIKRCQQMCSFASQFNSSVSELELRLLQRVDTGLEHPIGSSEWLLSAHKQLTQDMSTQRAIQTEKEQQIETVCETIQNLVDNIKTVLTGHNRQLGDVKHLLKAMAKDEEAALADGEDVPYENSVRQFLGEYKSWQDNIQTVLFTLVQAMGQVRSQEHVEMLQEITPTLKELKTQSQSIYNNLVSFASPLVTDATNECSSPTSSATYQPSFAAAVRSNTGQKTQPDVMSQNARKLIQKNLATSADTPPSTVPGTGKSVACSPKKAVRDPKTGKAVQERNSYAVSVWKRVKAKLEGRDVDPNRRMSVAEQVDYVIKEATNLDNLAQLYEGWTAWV

Turning to `CC(C)n1cc(-c2cc(-c3ccc(CN4CCOCC4)cc3)cnc2N)nn1`, the solubility in data set [1] stood at 36 µg/mL (≈ 95.1 µM). Also, the inhibition is -0.4% in data set [2]; 30.1% in data set [3]; 0% in [4]; 2.2% in data set [5]; 2.8% in data set [6]; -8.2% in [7]. Further, the results for the inhibition in [8], in [9] and in [10] were 14.2%, 21.7% and -0.4%, respectively.
